Patent publication US20080125432A1 (Devgen NV, priority 2004, published 2008)

Biological target: T1, hERG potassium channel (Homo sapiens, UniProt Q12809)
T1 construct: host or cells: HEK 293 T-REx
Assay: Whole cell patch clamp, HEK 293 T-REx HERG cells
Format: cell-based
Details: estimated by Hill fit with hill=1, ymax=100; tested at 10 μM, n=2; read-out: IC50 (μM) hERG
Description: For this experiment HEK 293 T-REx HERG cells (#23) were used. This cell line made by IonGate is characterized by the inducible expression of the hERG gene. The T-REx™ System (Invitrogen, Karlsruhe, Germany) is a tetracycline-regulated mammalian expression system that uses regulatory elements from the E. coli Tn10-encoded tetracycline (Tet) resistance operon. In the absence of Tet the expression is repressed. Tetracycline regulation in the T-REx™ System is based on the binding of tetracycline to the Tet repressor and derepression of the promoter controlling expression of the hERG gene. Addition of Tet to the cell culture media results in expression of the hERG potassium channel.
To construct the HEK 293 T-REx HERG cell line, the hERG gene was ligated into the inducible expression vector pcDNA4/TO (→pc4TO-HERG) and transfected into HEK 293 T-REx cells (this cell line stably expresses the Tet repressor and was purchased at Invitrogen). Stable cell clones were isolated after selection with Blasticidin (5 μg/ml) and Zeocin™ (300 μg/ml). The clones were electrophysiological characterized after induction with 1 μg/ml Tet.
Experiments were performed using the patch clamp set-up. Technical equipment needed for manipulation of the cells was placed on a vibration-isolated table and shielded with a Faraday cage to minimize electrical noise. The amplifier and control system were placed in a rack outside the Faraday cage. The system consisted of an EPC9 or EPC10 patch clamp amplifier (HEKA, Lambrecht, Germany), and the perfusion system DADVC8 (ALA Scientific, New York, USA) controlled by the Pulse software package (HEKA, Lambrecht, Germany) installed on a personal computer.
The cells used for this experiment were kept in continuous culture under standard conditions (37° C., air supplemented with 5% CO2). The HEK 293 T-REx HERG cells were kept in minimal essential medium (MEM) supplemented with 100 U/ml Penicillin, 100 μg/ml Streptomycin, 10% fetal calf serum (FCS), 1% non-essential amino acids (NEAA), 2.5 μg/ml amphotericin, 300 μg/ml Zeocin™ and 5 μg/ml Blasticidin. Cells were passed every 3-4 days after detachment using a Trypsin solution. The quality of the cultured cells was guaranteed by vitality and contamination tests. The culture of the cells was performed as described in protocol D described above.
At least 18 hours prior to electrophysiological experiments the cells were detached by application of iced PBS (phosphate buffered saline) or Trypsin and replated on cover slips. 1 μg/ml Tet was added to the cells to induce hERG expression.
Activity of the cardiac hERG channel was investigated using the patch clamp technique in its whole cell mode. This means that the current needed for clamping the whole cell expressing the K^+-channel protein to a specific potential was measured. The pipettes used for patch clamping were made of borosilicate glass. Measurements were performed at room temperature (20-25° C.). In each experiment (i.e. each cell) only one concentration of the compound was investigated no cumulative dosages were performed. Each cell acted as its own control. […]
After the whole cell configuration was established a series of pulses was applied to check for hERG expression and to optimize amplifier settings. However, only the following measurements were used for data analysis: 15 test pulses (FIG. 4a and Table 6a) were applied at 0.1 Hz (series 1) under constant superfusion with bath solution. The protocol was initiated by a leak test at −40 mV (50 ms). […] The maximum hERG tail current amplitude was measured at −40 mV (tail current test, 1.5 sec.). Only cells generating tail current amplitudes between 300 pA and 10 nA were used for the experimental procedure.
After successful characterization of the current another 10 test pulses were applied at 0.1 Hz while the cell was superfused with bath solution (series 2). […]

T1 sequence (Q12809 whole entry): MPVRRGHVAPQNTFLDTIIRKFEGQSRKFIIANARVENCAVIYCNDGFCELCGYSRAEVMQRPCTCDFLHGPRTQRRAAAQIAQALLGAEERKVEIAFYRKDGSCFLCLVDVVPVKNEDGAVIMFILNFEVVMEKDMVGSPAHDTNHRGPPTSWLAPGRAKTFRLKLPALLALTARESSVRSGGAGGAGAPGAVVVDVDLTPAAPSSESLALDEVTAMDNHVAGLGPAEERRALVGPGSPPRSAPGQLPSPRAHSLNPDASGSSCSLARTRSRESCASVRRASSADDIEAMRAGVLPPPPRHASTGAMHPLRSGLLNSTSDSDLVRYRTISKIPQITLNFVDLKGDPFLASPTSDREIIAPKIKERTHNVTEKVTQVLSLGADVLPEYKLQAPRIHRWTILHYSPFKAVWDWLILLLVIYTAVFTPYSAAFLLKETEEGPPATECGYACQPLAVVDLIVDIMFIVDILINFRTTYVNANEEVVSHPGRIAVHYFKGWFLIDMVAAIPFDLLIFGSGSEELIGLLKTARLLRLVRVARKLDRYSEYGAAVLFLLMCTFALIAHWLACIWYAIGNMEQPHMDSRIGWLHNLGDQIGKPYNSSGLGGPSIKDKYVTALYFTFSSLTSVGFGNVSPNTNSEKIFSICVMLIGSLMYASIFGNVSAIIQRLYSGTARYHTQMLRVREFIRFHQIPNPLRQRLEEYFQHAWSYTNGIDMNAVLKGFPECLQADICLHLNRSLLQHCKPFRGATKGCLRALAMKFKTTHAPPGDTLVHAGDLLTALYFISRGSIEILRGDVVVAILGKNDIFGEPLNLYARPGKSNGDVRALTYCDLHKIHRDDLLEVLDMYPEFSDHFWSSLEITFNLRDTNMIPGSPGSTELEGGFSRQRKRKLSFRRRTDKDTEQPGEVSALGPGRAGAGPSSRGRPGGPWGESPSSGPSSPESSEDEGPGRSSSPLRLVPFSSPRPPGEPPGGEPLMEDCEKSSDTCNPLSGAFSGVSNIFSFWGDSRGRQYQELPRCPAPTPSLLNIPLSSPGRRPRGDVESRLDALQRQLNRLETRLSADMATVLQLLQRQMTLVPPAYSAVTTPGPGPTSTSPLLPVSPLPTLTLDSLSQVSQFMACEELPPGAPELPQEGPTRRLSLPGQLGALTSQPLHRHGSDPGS

Compound: COc1ccccc1Nc1nc(C)c(C(=O)N[C@@H]2CCC[C@H]2OCc2ccccc2)s1 [Compound 31, 2-(2-methoxy-phenylamino)-4-methyl-thiazole-5-carboxylic acid (1R,2R)-2-(benzyloxycyclopent-1-yl) amide]
- IC50: 25.3 µM
